Literature values as cited in US20150071857A1, “STEROID HORMONE AND CHOLESTEROL PATHWAYS AS ONE UNIFIED HOMEOSTATIC SYSTEM” (LIGAND PHARMACEUTICALS, INC., priority 2012, published 2015).
Like-named read-outs stand apart in the source and are kept apart here.

Legend:
[1] = high dose, on top of statin therapy
[2] = parenterally formulated progestin-only contraceptive, women
[3] = large WHI trials
[4] = high-dose, postmenopausal women

Question: With `O=C(O)c1cccnc1` [niacin] as the compound, how does the cardiovascular events [1] read?
Answer: no significant reduction in cardiovascular events

Question: What does the source list for `CC(=O)O[C@]1(C(C)=O)CC[C@H]2[C@@H]3C[C@H](C)C4=CC(=O)CC[C@]4(C)[C@H]3CC[C@@]21C` [Medroxyprogesterone acetate]?
Answer: HDL-C change [2]: significant reduction in HDL-C; thrombosis events [3]: doubled the thrombosis events

Question: For `O=c1c(-c2ccccc2)coc2ccccc12` [isoflavone], which HDL-C change [4] is on record?
Answer: significantly reduced

Question: And the “total T change” value [4]?
Answer: significantly reduced
